Experimental findings from patent US20100174065A1, “COMPOUNDS” (GLAXO GROUP LIMITED, priority 2007, published 2010) are described below.

A word on the EC50: it is the concentration needed to bring the measured effect to its halfway point.

The assay concerns the target T1, human S1P1 receptor (Homo sapiens, UniProt P21453).
T1 construct: expressed in transfected cells; membranes
The assay can be described thus: S1P1 GTPγS assay. It is filed as biochemical. The note with it: agonist activity, [35S]-GTPγS binding, human S1P1 rat hepatoma membranes. As to the method:
(§1) For membrane preparations all steps were performed at 4° C. Rat hepatoma cells stably expressing the human S1P1 receptor or Rat Basophilic Leukaemia cells (RBL) stably expressing human S1P3 receptor were grown to 80% confluency before being harvested into 10 ml Phospho-Buffered Saline (PBS) and centrifuged at 1200 rpm for 5 minutes. After removal of the supernatant, the pellet was re-suspended and cells were homogenised within a glass Waring blender for 2 bursts of 15 secs in 200 mls of buffer (50 mM HEPES, 1 mM leupeptin, 25 μg/ml bacitracin, 1 mM EDTA, 1 mM PMSF, 2 μM pepstatin A). The blender was plunged into ice for 5 mins after the first burst and 10-40 mins after the final burst to allow foam to dissipate. The material was then spun at 500 g for 20 mins and the supernatant spun for 36 mins at 48,000 g. The pellet was resuspended in the same buffer as above but without PMSF and pepstatin A. The material was then forced through a 0.6 mm needle, made up to the required volume, (usually ×4 the volume of the original cell pellet), aliquoted and stored frozen at −80° C.
as §1, with “All” for “For membrane preparations all”, “Cells” for “Rat hepatoma cells stably expressing the human S1P1 receptor or Rat Basophilic Leukaemia cells (RBL) stably expressing human S1P3 receptor were grown to 80% confluency before being harvested into 10 ml Phospho-Buffered Saline (PBS) and centrifuged at 1200 rpm for 5 minutes. After removal of the supernatant, the pellet was re-suspended and cells”
Human S1P1 rat hepatoma membranes (1.5 μg/well) were adhered to a wheatgerm agglutinin (WGA)-coated scintillation proximity assay (SPA) beads (0.125 mg/well) in assay buffer (HEPES 20 mM, MgCl2 10 mM, NaCl 100 mM and pH adjusted to 7.4 using KOH 5M, GDP 10 μM FAC (final assay concentration) and saponin 90 μg/ml FAC was also added).
After 30 minutes pre-coupling on ice the bead and membrane suspension was dispensed into a white Greiner polypropylene LV384-well plate ([…]), containing 0.1 μl of the compound. 5 μl/well [^355]-GTPγS (0.5 nM final radioligand conc) made up in assay buffer was then added to agonist plates. The final assay cocktail (10.1 μl) was then centrifuged at 1000 rpm for 5 minutes then read immediately on a Viewlux reader.
All test compounds were dissolved in DMSO at a concentration of 10 mM and were prepared in 100% DMSO using a 1 in 4 dilution step to provide 11 point dose response curves. The dilutions were transferred to the assay plates ensuring that the DMSO concentration was constant across the plate for all assays.
All data was normalized to the mean of 16 high and 16 low control wells on each plate. A four parameter curve fit was then applied.
S1P1 expressing RH7777 membranes (1.5 μg/well) membranes (1.5 μg/well) were homogenised by passing through a 23G needle. These were then adhered to WGA-coated SPA beads (0.125 mg/well) in assay buffer (HEPES 20 mM, MgCl2 10 mM, NaCl 100 mM and pH adjusted to 7.4 using KOH 5M). GDP 10 μM FAC and saponin 90 μg/ml FAC were also added
After 30 minutes precoupling on ice, the bead and membrane suspension was dispensed into white Greiner polypropylene LV 384-well plates (5 μl/well), containing 0.1 μl of compound. 5 μl/well [^35S]-GTPγS (0.5 nM for S1P1 or 0.3 nM for S1P3 final radioligand concentration) made in assay buffer was then added to the plates. The final assay cocktail (10.1 μl) was then sealed, spun on a centrifuge, then read immediately on a Viewlux instrument.

Structures can show the parent of a compound that is named as a salt.

T1 sequence (P21453 whole entry): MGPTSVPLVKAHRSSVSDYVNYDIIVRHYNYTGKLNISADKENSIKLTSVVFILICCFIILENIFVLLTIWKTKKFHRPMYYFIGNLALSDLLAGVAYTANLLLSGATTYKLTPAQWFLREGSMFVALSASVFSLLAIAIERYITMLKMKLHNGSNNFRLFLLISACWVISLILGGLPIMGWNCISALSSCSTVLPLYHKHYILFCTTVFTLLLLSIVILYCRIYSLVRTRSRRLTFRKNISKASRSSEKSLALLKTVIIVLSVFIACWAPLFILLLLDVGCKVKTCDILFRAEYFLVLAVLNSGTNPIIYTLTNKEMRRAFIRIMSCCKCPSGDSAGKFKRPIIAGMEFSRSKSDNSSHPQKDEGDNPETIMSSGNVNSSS

Take `CC(C)Oc1ncc(-c2nc(-c3ccc4c(c3)CCNCC4)no2)cc1C#N` [Example 48, 2-[(1-Methylethyl)oxy]-5-[3-(2,3,4,5-tetrahydro-1H-3-benzazepin-7-yl)-1,2,4-oxadiazol-5-yl]-3-pyridinecarbonitrile formate]: the EC50 is < 100 nM.

For the compound `CC(C)Oc1ccc(-c2nc(-c3cccc4c3CCNCC4)no2)cc1Cl` [Example 8, 6-(5-{3-Chloro-4-[(1-methylethyl)oxy]phenyl}-1,2,4-oxadiazol-3-yl)-2,3,4,5-tetrahydro-1H-3-benzazepine hydrochloride], the EC50 was < 100 nM.

Take `CC(C)Oc1ccc(-c2nc(-c3ccc4c(c3)CCN(CC(=O)O)CC4)no2)cc1Cl` [Example 22, [7-(5-{3-Chloro-4-[(1-methylethyl)oxy]phenyl}-1,2,4-oxadiazol-3-yl)-1,2,4,5-tetrahydro-3H-3-benzazepin-3-yl]acetic acid]: the EC50 was < 100 nM.

Turning to `CC(C)Oc1ccc(-c2nc(-c3ccc4c(c3)CCCN(CCC(=O)O)C4)no2)cc1C#N` [Example 6, 3-[7-(5-{3-Cyano-4-[(1-methylethyl)oxy]phenyl}-1,2,4-oxadiazol-3-yl)-1,3,4,5-tetrahydro-2H-2-benzazepin-2-yl]propanoic acid hydrochloride], the EC50 is < 100 nM.

In the case of `CC(C)Oc1ccc(-c2nc(-c3cccc4c3OCCN(CCC(=O)O)C4)no2)cc1Cl` [Example 47, 3-[9-(5-{3-Chloro-4-[(1-methylethyl)oxy]phenyl}-1,2,4-oxadiazol-3-yl)-2,3-dihydro-1,4-benzoxazepin-4(5H)-yl]propanoic acid], the EC50 is < 100 nM.

For the compound `O=C(O)CCCN1CCc2ccc(-c3noc(-c4ccc(-c5ccccc5)c(C(F)(F)F)c4)n3)cc2CC1` [Example 29, 4-(7-{5-[2-(Trifluoromethyl)-4-biphenylyl]-1,2,4-oxadiazol-3-yl}-1,2,4,5-tetrahydro-3H-3-benzazepin-3-yl)butanoic acid hydrochloride], the EC50 was < 100 nM.

As to `CC(C)Oc1ccc(-c2nc(-c3ccc4c(c3)CNCCO4)no2)cc1C#N` [Example 35, 2-[(1-Methylethyl)oxy]-5-[3-(2,3,4,5-tetrahydro-1,4-benzoxazepin-7-yl)-1,2,4-oxadiazol-5-yl]benzonitrile hydrochloride], the EC50 is < 100 nM.

Turning to `CC(C)Oc1ccc(-c2nc(-c3ccc4c(c3)CCNCC4)no2)cc1C(F)(F)F` [Example 19, 7-{5-[4-[(1-Methylethyl)oxy]-3-(trifluoromethyl)phenyl]-1,2,4-oxadiazol-3-yl}-2,3,4,5-tetrahydro-1H-3-benzazepine hydrochloride], the EC50 is < 100 nM.

As to `CC(C)Oc1ccc(-c2nc(-c3ccc4c(c3)CCN(CC(=O)O)CC4)no2)cc1C#N` [Example 23, [7-(5-{3-Cyano-4-[(1-methylethyl)oxy]phenyl}-1,2,4-oxadiazol-3-yl)-1,2,4,5-tetrahydro-3H-3-benzazepin-3-yl]acetic acid], the EC50 was ≤ 10 nM.

Turning to `CC(C)Oc1ccc(-c2nc(-c3ccc4c(c3)CCN(CCCC(=O)O)CC4)no2)cc1C(F)(F)F` [Example 28, 4-(7-{5-[4-[(1-Methylethyl)oxy]-3-(trifluoromethyl)phenyl]-1,2,4-oxadiazol-3-yl}-1,2,4,5-tetrahydro-3H-3-benzazepin-3-yl)butanoic acid hydrochloride], the EC50 is ≤ 10 nM.

In the case of `CC(C)Oc1ccc(-c2nc(-c3cccc4c3CCNCC4)no2)cc1C#N` [Example 7, 2-[(1-Methylethyl)oxy]-5-[3-(2,3,4,5-tetrahydro-1H-3-benzazepin-6-yl)-1,2,4-oxadiazol-5-yl]benzonitrile hydrochloride], the EC50 was ≤ 10 nM.

As to `CC(C)Oc1ccc(-c2nc(-c3cccc4c3OCCN(CCCCC(=O)O)C4)no2)cc1C#N` [Example 43, 5-[9-(5-{3-Cyano-4-[(1-methylethyl)oxy]phenyl}-1,2,4-oxadiazol-3-yl)-2,3-dihydro-1,4-benzoxazepin-4(5H)-yl]pentanoic acid], the EC50 is < 100 nM.

For `CC(C)Oc1ncc(-c2nc(-c3ccc4c(c3)CCN(CCCC(=O)O)CC4)no2)cc1Cl` [Example 50, 4-[7-(5-{5-Chloro-6-[(1-methylethyl)oxy]-3-pyridinyl}-1,2,4-oxadiazol-3-yl)-1,2,4,5-tetrahydro-3H-3-benzazepin-3-yl]butanoic acid], the EC50 was < 100 nM.

For the compound `CC(C)Oc1ccc(-c2nc(-c3ccc4c(c3)CCNCC4)no2)cc1C#N` [Example 18, 2-[(1-Methylethyl)oxy]-5-[3-(2,3,4,5-tetrahydro-1H-3-benzazepin-7-yl)-1,2,4-oxadiazol-5-yl]benzonitrile hydrochloride], the half-maximal effective concentration (EC50) is < 100 nM.

Take `CC(C)Oc1ccc(-c2nc(-c3cccc4c3OCCNC4)no2)cc1Cl` [Example 31, 9-(5-{3-Chloro-4-[(1-methylethyl)oxy]phenyl}-1,2,4-oxadiazol-3-yl)-2,3,4,5-tetrahydro-1,4-benzoxazepine hydrochloride]: the EC50 was < 100 nM.

Consider `CC(C)Oc1ccc(-c2nc(-c3cccc4c3CCCN(CC(=O)O)C4)no2)cc1Cl` [Example 12, [6-(5-{3-Chloro-4-[(1-methylethyl)oxy]phenyl}-1,2,4-oxadiazol-3-yl)-1,3,4,5-tetrahydro-2H-2-benzazepin-2-yl]acetic acid hydrochloride], for which the EC50 is < 100 nM.

Consider `CC(C)Oc1ccc(-c2nc(-c3ccc4c(c3)CCN(CC(=O)O)CC4)no2)cc1C(F)(F)F` [Example 24, (7-{5-[4-[(1-Methylethyl)oxy]-3-(trifluoromethyl)phenyl]-1,2,4-oxadiazol-3-yl}-1,2,4,5-tetrahydro-3H-3-benzazepin-3-yl)acetic acid], for which the EC50 was ≤ 10 nM.

Turning to `CC(C)Oc1ccc(-c2nc(-c3cccc4c3OCCNC4)no2)cc1C#N` [Example 32, 2-[(1-Methylethyl)oxy]-5-[3-(2,3,4,5-tetrahydro-1,4-benzoxazepin-9-yl)-1,2,4-oxadiazol-5-yl]benzonitrile hydrochloride], the EC50 was < 100 nM.

As for `CC(C)Oc1ccc(-c2nc(-c3ccc4c(c3)CCN(CCC(=O)O)CC4)no2)cc1Cl` [Example 21, 3-[7-(5-{3-Chloro-4-[(1-methylethyl)oxy]phenyl}-1,2,4-oxadiazol-3-yl)-1,2,4,5-tetrahydro-3H-3-benzazepin-3-yl]propanoic acid], the EC50 was ≤ 10 nM.

`CC(C)Oc1ccc(-c2nc(-c3ccc4c(c3)CN(CCCC(=O)O)CCO4)no2)cc1C#N` [Example 39, 4-[7-(5-{3-Cyano-4-[(1-methylethyl)oxy]phenyl}-1,2,4-oxadiazol-3-yl)-2,3-dihydro-1,4-benzoxazepin-4(5H)-yl]butanoic acid]: the EC50 is < 100 nM.

As for `CC(C)Oc1ccc(-c2nc(-c3ccc4c(c3)OCCNC4)no2)cc1C#N` [Example 41, 2-[(1-Methylethyl)oxy]-5-[3-(2,3,4,5-tetrahydro-1,4-benzoxazepin-8-yl)-1,2,4-oxadiazol-5-yl]benzonitrile], the EC50 is < 100 nM.

With `CC(C)Oc1ccc(-c2nc(-c3ccc4c(c3)CCN(CCCC(=O)O)CC4)no2)cc1C#N` [Example 27, 4-[7-(5-{3-cyano-4-[(1-methylethyl)oxy]phenyl}-1,2,4-oxadiazol-3-yl)-1,2,4,5-tetrahydro-3H-3-benzazepin-3-yl]butanoic acid hydrochloride], the EC50 was ≤ 10 nM.

For the compound `CC(C)Oc1ccc(-c2nc(-c3cccc4c3OCCN(CCCC(=O)O)C4)no2)cc1Cl` [Example 33, 4-[9-(5-{3-Chloro-4-[(1-methylethyl)oxy]phenyl}-1,2,4-oxadiazol-3-yl)-2,3-dihydro-1,4-benzoxazepin-4(5H)-yl]butanoic acid], the EC50 is < 100 nM.
